Assay results as given in US20130338061A1, “Salts and Polymorphs of Sulfamide NS3 Inhibitors” (priority 2010, published 2013).

Key:
[1] = tested on: subgenomic genotype 1b HCV replicon cell line (Huh-Luc/neo-ET); test: Luciferase-based HCV replicon assay; format: cell-based; settings: Hepatitis C virus; Huh-Luc/neo-ET replicon cells, 48-h treatment, 10% FBS; read-out: IC50 in replicon assay (luciferase activity reduced by 50%)
Description: The antiviral activity and cytotoxicity of Compound X is determined using a subgenomic genotype 1b HCV replicon cell line (Huh-Luc/neo-ET) containing a luciferase reporter gene, the expression of which is under the control of HCV RNA replication and translation. Briefly, 5,000 replicon cells are seeded in each well of 96-well tissue culture plates and are allowed to attach in complete culture media without G418 overnight. On the next day, the culture media are replaced with media containing serially diluted Compound X in the presence of 10% FBS and 0.5% DMSO. After a 48-h treatment with the compound, the remaining luciferase activities in the cells are determined using BriteLite reagent (Perkin Elmer, Wellesley, Mass.) with a LMaxII plate reader (Molecular Probe, Invitrogen). Each data point represents the average of four replicates in cell culture. IC50 is the concentration of the compound at which the luciferase activity in the replicon cells is reduced by 50%. The cytotoxicity of the compound is evaluated using an MTS-based cell viability assay.

[2] = target: HCV NS3-4A serine protease (full-length NS3-4A protein, genotype 1a, strain HCV-1) (Hepatitis C virus genotype 1a, UniProt P26664); test: HCV NS3-4A protease assay; format: biochemical; settings: fluorogenic peptide substrate
Description: The inhibitory activity of Compound X against HCV NS3-4A serine protease is determined in a homogenous assay using the full-length NS3-4A protein (genotype 1a, strain HCV-1) and a commercially available internally-quenched fluorogenic peptide substrate as described by Taliani, M., et al. 1996 Anal. Biochem. 240:60-67, which is incorporated by reference in its entirety.

HCV NS3-4A serine protease (full-length NS3-4A protein, genotype 1a, strain HCV-1), sequence (P26664 1658-1711): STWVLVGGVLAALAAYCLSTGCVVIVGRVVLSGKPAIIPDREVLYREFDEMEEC
HCV NS3-4A serine protease (full-length NS3-4A protein, genotype 1a, strain HCV-1), sequence (P26664 1027-1657): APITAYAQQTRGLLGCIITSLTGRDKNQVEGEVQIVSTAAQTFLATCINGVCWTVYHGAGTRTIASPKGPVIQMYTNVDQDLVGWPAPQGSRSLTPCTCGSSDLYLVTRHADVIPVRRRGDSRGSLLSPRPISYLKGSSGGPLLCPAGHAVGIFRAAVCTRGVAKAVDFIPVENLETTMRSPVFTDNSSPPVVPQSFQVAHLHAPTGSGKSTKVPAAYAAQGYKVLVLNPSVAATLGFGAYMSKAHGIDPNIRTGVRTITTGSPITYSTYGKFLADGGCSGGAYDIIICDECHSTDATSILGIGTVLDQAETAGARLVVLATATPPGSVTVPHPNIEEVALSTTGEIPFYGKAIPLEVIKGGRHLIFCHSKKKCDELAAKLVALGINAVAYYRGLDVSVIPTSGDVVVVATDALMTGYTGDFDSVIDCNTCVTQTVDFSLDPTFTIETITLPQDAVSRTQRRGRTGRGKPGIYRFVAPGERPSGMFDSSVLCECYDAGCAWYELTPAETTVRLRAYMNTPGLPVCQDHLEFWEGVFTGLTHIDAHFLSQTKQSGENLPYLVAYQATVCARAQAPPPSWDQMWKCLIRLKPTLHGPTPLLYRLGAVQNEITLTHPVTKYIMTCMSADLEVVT

## CC[C@@H]1C[C@]1(NC(=O)[C@@H]1C[C@@]2(CN1C(=O)[C@@H](NC(=O)[C@@H](NC(=O)[C@@H]1CCCCN1C(C)C)C1CCCCC1)C(C)(C)C)C(C)(C)C21CCC1)C(=O)NS(=O)(=O)N1CCCC1 [Compound X, (5R,8S)-7-[(2S)-2-{[(2S)-2-cyclohexyl-2-({[(2S)-1-isopropylpiperidin-2-yl]carbonyl}amino)acetyl]amino}-3,3-dimethylbutanoyl]-N-{(1R,2R)-2-ethyl-1-[(pyrrolidin-1-ylsulfonyl)carbamoyl]cyclopropyl}-10,10-dimethyl-7-azadispiro[3.0.4.1]decane-8-carboxamide]
[1]
  IC50: < 100 nM
[2]
  IC50: 4.5 nM
